Reference: patent US20150057443A1, “Cycloalkyl Amine Compounds” (Prexa Pharmaceuticals, Inc., priority 2013, published 2015)

Key:
human recombinant DAT = human recombinant DAT (Homo sapiens, UniProt Q01959); assay: DAT radioligand binding assay (scintillation proximity, [3H]WIN-35428)
Method: (§1) Affinity of the compounds for monoamine transporters was determined by in vitro radioligand binding assays using cell membrane preparations derived from HEK293 cell lines stably expressing human recombinant DAT, NET or SERT receptor (Suven Life Sciences, Hyderabad, India).
(§2) Stable DAT cell lines were generated following procedures described in Eshelman et al., Molecular Pharmacology 45, 312-316; 1994. Stable NET cell lines were generated following procedures described in Pacholczyk et al., Nature 350, 350-354, 1991 and Galli et al., Journal Exp. Biol. 198, 2197-2212, 1995. Stable SERT cell lines were generated following procedures described in Ramamoorthy et al., Proc Natl Acad Sci USA 90, 2542-246, 1993.
(§3) Cell membranes were obtained from the above-referenced cell lines by manually homogenizing previously frozen cell pellets in Tris-HCl buffer and serially centrifugating and re-extracting the preparations according procedures described in Subbu et al., Journal Pharmacol ExpTher 327, 982-990, 2008.
(§4) A scintillation proximity assay was used to measure receptor binding. Homogenized membrane preparations (final protein concentration 8-15 ug/well) were pre-incubated with WGA PVT SPA beads (0.5 mg/well) for 5 minutes. Binding was initiated by adding high affinity ligands and test compounds (0.1 nM to 10 μM) or reference/positive control ligands to the membrane-bead complex. Plates were incubated for three hours and raw data counts recorded using a liquid scintillation counter (MicroBetaTriLux Counter, Perkin Elmer). Inhibition constants (Ki) were calculated using GraphPad Prism software (version 4.0).
DAT receptor binding was determined using procedures described in Skolnick et al., European Journal of Pharmacology, 461(2-3):99-104, 2003; and Eshleman et al., The Journal of Pharmacology and Experimental Therapeutics 289:877-885, 1999. A mixture of [3H]WIN-35428 (N-methyl 3H-WIN-35428, Perkin Elmer) and bead-membrane complex was added to wells containing test compound. Wells containing nomifensine maleate ([…], Sigma) were used to define non-specific […] binding. Total radioligand was defined by assay buffer containing 1% DMSO in the presence of [3H]WIN-35428. DAT Ki values were calculated using GraphPad Prism software (version 4.0).

human recombinant NET = biological target: T1, human recombinant NET (Homo sapiens, UniProt P23975); assay: NET radioligand binding assay (scintillation proximity, [3H]nisoxetine); settings: HEK293 cell membranes expressing human recombinant NET; [3H]nisoxetine; SPA; read-out: NET Ki
T1 construct: membranes)
T1 sequence (P23975 whole entry): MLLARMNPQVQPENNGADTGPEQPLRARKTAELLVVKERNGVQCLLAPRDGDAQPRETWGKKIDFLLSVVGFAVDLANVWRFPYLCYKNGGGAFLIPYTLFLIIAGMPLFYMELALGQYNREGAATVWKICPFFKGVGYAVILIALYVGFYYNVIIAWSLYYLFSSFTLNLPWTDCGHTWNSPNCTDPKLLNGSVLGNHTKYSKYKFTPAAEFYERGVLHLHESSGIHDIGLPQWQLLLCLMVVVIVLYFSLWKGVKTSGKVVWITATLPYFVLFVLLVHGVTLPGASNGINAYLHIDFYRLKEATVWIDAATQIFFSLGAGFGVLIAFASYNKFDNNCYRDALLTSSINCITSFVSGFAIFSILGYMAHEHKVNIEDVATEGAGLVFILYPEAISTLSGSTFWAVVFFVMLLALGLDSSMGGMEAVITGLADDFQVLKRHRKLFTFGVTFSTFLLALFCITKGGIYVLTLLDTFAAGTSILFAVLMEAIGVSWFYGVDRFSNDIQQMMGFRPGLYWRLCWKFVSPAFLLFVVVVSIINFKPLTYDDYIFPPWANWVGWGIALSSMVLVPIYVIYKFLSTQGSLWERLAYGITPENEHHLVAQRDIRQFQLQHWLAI
Method: as §1, §2, §3, §4
NET receptor binding was determined using procedures described in Mason et al., The Journal of Pharmacology and Experimental Therapeutics 323:720-729, 2007; and Eshleman et al., The Journal of Pharmacology and Experimental Therapeutics289:877-885, 1999. A mixture of [3H]nisoxetine hydrochloride (N-methyl-[3H]nisoxetine, Perkin Elmer) and bead-membrane complex was added to wells containing test compound. Wells containing unlabeled nisoxetine (100 uM, Sigma) were used to define non-specific NET binding. Total radioligand was defined using assay buffer containing 1% DMSO in the presence of [3H]nisoxetine. NET Ki values were calculated using GraphPad Prism software (version 4.0).

human recombinant SERT = biological target: T2, human recombinant SERT (Homo sapiens, UniProt P31645); assay: SERT radioligand binding assay (scintillation proximity, [3H]citalopram); settings: HEK293 cell membranes expressing human recombinant SERT; [3H]citalopram; SPA; read-out: SERT Ki
T2 construct: membranes)
T2 sequence (P31645 whole entry): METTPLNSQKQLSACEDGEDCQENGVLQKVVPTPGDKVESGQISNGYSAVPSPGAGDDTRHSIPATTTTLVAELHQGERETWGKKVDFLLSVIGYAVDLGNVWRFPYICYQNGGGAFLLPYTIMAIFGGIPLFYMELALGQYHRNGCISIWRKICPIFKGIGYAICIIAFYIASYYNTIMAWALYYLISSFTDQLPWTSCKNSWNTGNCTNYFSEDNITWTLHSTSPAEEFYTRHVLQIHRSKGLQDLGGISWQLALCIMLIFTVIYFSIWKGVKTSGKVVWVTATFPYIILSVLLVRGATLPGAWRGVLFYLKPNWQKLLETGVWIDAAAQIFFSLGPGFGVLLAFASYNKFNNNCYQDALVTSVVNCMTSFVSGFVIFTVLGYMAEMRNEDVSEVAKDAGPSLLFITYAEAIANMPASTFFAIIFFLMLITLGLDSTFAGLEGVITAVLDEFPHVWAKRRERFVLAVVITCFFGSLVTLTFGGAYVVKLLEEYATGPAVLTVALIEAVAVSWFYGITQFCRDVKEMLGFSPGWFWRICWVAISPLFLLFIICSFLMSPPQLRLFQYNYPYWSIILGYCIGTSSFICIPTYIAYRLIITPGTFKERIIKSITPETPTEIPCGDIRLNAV
Method: as §1, §2, §3, §4
SERT receptor binding was determined using procedures described in Owens et al., The Journal of Pharmacology and Experimental Therapeutics 283:1305-1322, 1997. A mixture of [3H]citalopram (N-methyl-[3H]citalopram, Perkin Elmer) and bead-membrane complex was added to wells containing test compound. Non-specific binding was determined using wells containing venlafaxine hydrochloride (100 uM, Sigma). Total radioligand was determined using assay buffer containing 1% DMSO in the presence of [3H]citalopram. SERT Ki values were calculated using GraphPad Prism software (version 4.0).

Sequence of human recombinant DAT (Q01959 whole entry): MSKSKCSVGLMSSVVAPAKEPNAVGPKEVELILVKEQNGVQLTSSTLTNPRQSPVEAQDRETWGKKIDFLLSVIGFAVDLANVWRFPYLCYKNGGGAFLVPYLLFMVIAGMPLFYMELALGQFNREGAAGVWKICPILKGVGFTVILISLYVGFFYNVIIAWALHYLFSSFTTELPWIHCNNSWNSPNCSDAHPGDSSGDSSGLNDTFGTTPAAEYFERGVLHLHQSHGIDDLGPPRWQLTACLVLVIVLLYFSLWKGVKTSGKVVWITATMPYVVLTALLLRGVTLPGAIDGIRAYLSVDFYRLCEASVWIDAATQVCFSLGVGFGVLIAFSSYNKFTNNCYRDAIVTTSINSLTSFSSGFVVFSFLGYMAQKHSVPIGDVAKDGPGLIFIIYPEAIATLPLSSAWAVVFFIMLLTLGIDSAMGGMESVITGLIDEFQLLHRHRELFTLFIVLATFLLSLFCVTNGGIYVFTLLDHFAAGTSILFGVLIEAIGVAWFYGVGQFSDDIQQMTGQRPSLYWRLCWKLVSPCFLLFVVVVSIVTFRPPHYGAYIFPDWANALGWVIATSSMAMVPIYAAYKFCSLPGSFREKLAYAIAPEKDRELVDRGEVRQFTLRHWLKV

SMILES | Ki (human recombinant DAT) [nM] | Ki (human recombinant NET) [nM] | Ki (human recombinant SERT) [nM]
N#CC1CCCN(CC(O)C2(c3ccc(Cl)c(Cl)c3)CCC2)C1 (stereo not drawn) [Compound 32, 1-{2-[1-(3,4-dichlorophenyl)cyclobutyl]-2-hydroxyethyl}piperidine-3-carbonitrile] | < 10 | 101 to 500 | 11 to 100
OC(CN1CCCC(F)C1)C1(c2ccc(Cl)c(Cl)c2)CCC1 (stereo not drawn) [Compound 21, 1-{2-[1-(3,4-Dichlorophenyl)cyclobutyl]-2-hydroxyethyl}-3-fluoropiperidin-1-ium chloride] | < 10 | 11 to 100 | > 500
CC1(C)COCCN1CC(O)C1(c2ccc(Cl)c(Cl)c2)CCC1 (stereo not drawn) [Compound 31, 4-{2-[1-(3,4-dichlorophenyl)cyclobutyl]-2-hydroxyethyl}-3,3-dimethylmorpholin-4-ium chloride] | < 10 | 11 to 100 | 11 to 100
CC(C)(C)NCC(O)C1(c2ccc(Cl)c(Cl)c2)CCC1 (stereo not drawn) [Compound 20, tert-butyl({2-[1-(3,4-dichlorophenyl)cyclobutyl]-2-hydroxyethyl})azanium chloride] | 11 to 100 | 11 to 100 | 101 to 500
CC1(NCC(O)C2(c3ccc(Cl)c(Cl)c3)CCC2)CC1 (stereo not drawn) [Compound 34, N-{2-[1-(3,4-Dichlorophenyl)cyclobutyl]-2-hydroxyethyl}-1-methylcyclopropan-1-aminium chloride] | 11 to 100 | 11 to 100 | 101 to 500
OC(CN1CCCCC1)C1(c2cccc(Cl)c2)CCC1 (stereo not drawn) [Compound 12, 1-{2-[1-(3-Chlorophenyl)cyclobutyl]-2-hydroxyethyl}piperidin-1-ium chloride] | > 500 | > 500 | > 500
OC(CN1CCC(F)(F)CC1)C1(c2ccc(Cl)c(Cl)c2)CCC1 (stereo not drawn) [Compound 24, 1-{2-[1-(3,4-Dichlorophenyl)cyclobutyl]-2-hydroxyethyl}-4,4-difluoropiperidin-1-ium chloride] | < 10 | > 500 | 101 to 500
OC(CN1CCCCC1)C1(c2ccc(Cl)c(Cl)c2)CCC1 (stereo not drawn) [Compound 7, 1-{2-[1-(3,4-Dichlorophenyl)cyclobutyl]-2-hydroxyethyl}piperidin-1-ium chloride] | 11 to 100 | 101 to 500 | > 500
CCCN(CC)CC(O)C1(c2ccc(Cl)c(Cl)c2)CCC1 (stereo not drawn) [Compound 48, {2-[1-(3,4-Dichlorophenyl)cyclobutyl]-2-hydroxyethyl}(ethyl)propylazanium chloride] | 11 to 100 | 11 to 100 | 101 to 500
OC(CN1CCCCCC1)C1(c2ccc(Cl)c(Cl)c2)CCC1 (stereo not drawn) [Compound 16, 1-{2-[1-(3,4-Dichlorophenyl)cyclobutyl]-2-hydroxyethyl}azepan-1-ium chloride] | 11 to 100 | 101 to 500 | > 500
OC(CN1CCCCC1)C1(c2ccc(Cl)c(Cl)c2)CCCC1 (stereo not drawn) [Compound 60, 1-{2-[1-(3,4-dichlorophenyl)cyclopentyl]-2-hydroxyethyl}piperidin-1-ium chloride] | 11 to 100 | 101 to 500 | 101 to 500
O[C@@H](CN1CCCCC1)C1(c2ccc(Cl)c(Cl)c2)CCC1 [Compound 14, 1-[(2R)-2-[1-(3,4-dichlorophenyl)cyclobutyl]-2-hydroxyethyl]piperidin-1-ium chloride] | 11 to 100 | 101 to 500 | > 500
OC(CN1CCCCC1)C1(c2ccc(Cl)cc2)CCC1 (stereo not drawn) [Compound 6, 1-{2-[1-(4-Chlorophenyl)cyclobutyl]-2-hydroxyethyl}piperidin-1-ium chloride] | > 500 | > 500 | > 500
O[C@H](CN1CCCCC1)C1(c2ccc(Cl)c(Cl)c2)CCC1 [Compound 13, 1-[(2S)-2-[1-(3,4-dichlorophenyl)cyclobutyl]-2-hydroxyethyl]piperidin-1-ium chloride] | 11 to 100 | 11 to 100 | > 500
CC(CF)NCC(O)C1(c2ccc(Cl)c(Cl)c2)CCC1 (stereo not drawn) [Compound 29, {2-[1-(3,4-dichlorophenyl)cyclobutyl]-2-hydroxyethyl}(1-fluoropropan-2-yl)azanium chloride] | 11 to 100 | 101 to 500 | > 500
OC(CN1CCCC1)C1(c2ccc(Cl)c(Cl)c2)CCC1 (stereo not drawn) [Compound 17, 1-{2-[1-(3,4-Dichlorophenyl)cyclobutyl]-2-hydroxyethyl}pyrrolidin-1-ium chloride] | 11 to 100 | 101 to 500 | > 500
OC(CN1CC2CC(F)C1C2)C1(c2ccc(Cl)c(Cl)c2)CCC1 (stereo not drawn) [Compound 39, 2-{2-[1-(3,4-Dichlorophenyl)cyclobutyl]-2-hydroxyethyl}-6-fluoro-2-azabicyclo[2.2.1]heptan-2-ium chloride] | 101 to 500 | 101 to 500 | > 500
OC(CN1CCC(F)CC1)C1(c2ccc(Cl)c(Cl)c2)CCC1 (stereo not drawn) [Compound 23, 1-{2-[1-(3,4-Dichlorophenyl)cyclobutyl]-2-hydroxyethyl}-4-fluoropiperidin-1-ium chloride] | < 10 | 101 to 500 | > 500
COC(CN1CCCCC1)C1(c2ccc(Cl)c(Cl)c2)CCC1 (stereo not drawn) [Compound 59, 1-{2-[1-(3,4-dichlorophenyl)cyclobutyl]-2-methoxyethyl}piperidin-1-ium chloride] | > 500 | > 500 | > 500
O=C(CN1CCCCC1)C1(c2ccc(Cl)c(Cl)c2)CCCC1 [Compound 61, 1-{2-[1-(3,4-dichlorophenyl)cyclopentyl]-2-oxoethyl}piperidin-1-ium chloride] | 11 to 100 | > 500 | > 500
CCN(CC)CC(O)C1(c2ccc(Cl)c(Cl)c2)CCC1 (stereo not drawn) [Compound 18, {2-[1-(3,4-Dichlorophenyl)cyclobutyl]-2-hydroxyethyl}diethylazanium chloride] | 11 to 100 | 11 to 100 | > 500
Clc1ccc(C2(CN3CCCCC3)CCC2)cc1Cl [Compound 3] | 11 to 100 | 11 to 100 | 101 to 500
CCN(CC(O)C1(c2ccc(Cl)c(Cl)c2)CCC1)C(C)C (stereo not drawn) [Compound 47, {2-[1-(3,4-Dichlorophenyl)cyclobutyl]-2-hydroxyethyl}(ethyl)(propan-2-yl)azanium chloride] | 11 to 100 | 11 to 100 | 101 to 500
CC(F)C(C)NCC(O)C1(c2ccc(Cl)c(Cl)c2)CCC1 (stereo not drawn) [Compound 42, {2-[1-(3,4-dichlorophenyl)cyclobutyl]-2-hydroxyethyl}(3-fluorobutan-2-yl)azanium chloride] | 11 to 100 | 101 to 500 | 101 to 500
OC(CN1CCCC(F)(F)C1)C1(c2ccc(Cl)c(Cl)c2)CCC1 (stereo not drawn) [Compound 22, 1-{2-[1-(3,4-Dichlorophenyl)cyclobutyl]-2-hydroxyethyl}-3,3-difluoropiperidin-1-ium chloride] | < 10 | 101 to 500 | > 500
OC(CN1CCCCC1)C1(c2ccccc2)CCC1 (stereo not drawn) [Compound 5, 1-[2-hydroxy-2-(1-phenylcyclobutyl)ethyl]piperidin-1-ium chloride] | > 500 | > 500 | > 500
OC(CNC1CCC1)C1(c2ccc(Cl)c(Cl)c2)CCC1 (stereo not drawn) [Compound 36, N-{2-[1-(3,4-Dichlorophenyl)cyclobutyl]-2-hydroxyethyl}cyclobutanaminium chloride] | 11 to 100 | 101 to 500 | 101 to 500
CC1(NCC(O)C2(c3ccc(Cl)c(Cl)c3)CCC2)CCC1 (stereo not drawn) [Compound 38, N-{2-[1-(3,4-Dichlorophenyl)cyclobutyl]-2-hydroxyethyl}-1-methylcyclobutan-1-aminium chloride] | < 10 | 11 to 100 | 101 to 500
